Results: ChEMBL document CHEMBL5465560, “Selectivity Literature for EUbOPEN Chemogenomic Library” (2024)

Tests used:
[1] = target: Interleukin-1 receptor-associated kinase 1 (Homo sapiens) (UniProt P51617); assay: Selectivity interaction (KinomeScan (DiscoverX)) EUB0000666a IRAK1; conditions: at 10 µM
[2] = target: Bone morphogenetic protein receptor type-1A (Homo sapiens, UniProt P36894); assay: Selectivity interaction (KinomeScan (DiscoverX)) EUB0000607a BMPR1A; conditions: at 10 µM
[3] = target: T1, Protein kinase C zeta type (Homo sapiens) (UniProt Q05513); assay: Selectivity interaction (ActivX KiNativ screen (kinase selectivity in THP-1 cell lysates)) EUB0000639a PRKCZ; type: subcellular; conditions: lysate
T1 sequence (whole entry): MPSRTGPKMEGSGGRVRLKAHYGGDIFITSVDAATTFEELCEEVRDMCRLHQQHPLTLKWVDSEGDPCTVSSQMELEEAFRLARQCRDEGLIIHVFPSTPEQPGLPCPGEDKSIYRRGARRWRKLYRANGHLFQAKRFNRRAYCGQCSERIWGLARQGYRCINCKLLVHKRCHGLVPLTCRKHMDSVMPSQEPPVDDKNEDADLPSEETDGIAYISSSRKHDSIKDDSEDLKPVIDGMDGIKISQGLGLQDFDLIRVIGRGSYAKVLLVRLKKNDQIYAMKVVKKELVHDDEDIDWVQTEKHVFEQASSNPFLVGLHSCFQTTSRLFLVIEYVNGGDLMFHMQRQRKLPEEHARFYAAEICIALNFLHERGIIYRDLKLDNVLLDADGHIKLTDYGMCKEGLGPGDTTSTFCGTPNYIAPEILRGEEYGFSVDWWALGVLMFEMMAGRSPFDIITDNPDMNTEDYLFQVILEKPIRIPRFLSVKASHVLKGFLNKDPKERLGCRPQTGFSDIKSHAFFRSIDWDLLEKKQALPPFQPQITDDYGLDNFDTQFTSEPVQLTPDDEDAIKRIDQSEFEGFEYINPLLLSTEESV

[4] = target: T2, STE20-related kinase adapter protein alpha (Homo sapiens) (UniProt Q7RTN6); assay: Selectivity interaction (ActivX KiNativ screen (kinase selectivity in THP-1 cell lysates)) EUB0000639a STRADA; type: subcellular; conditions: lysate
T2 sequence (whole entry): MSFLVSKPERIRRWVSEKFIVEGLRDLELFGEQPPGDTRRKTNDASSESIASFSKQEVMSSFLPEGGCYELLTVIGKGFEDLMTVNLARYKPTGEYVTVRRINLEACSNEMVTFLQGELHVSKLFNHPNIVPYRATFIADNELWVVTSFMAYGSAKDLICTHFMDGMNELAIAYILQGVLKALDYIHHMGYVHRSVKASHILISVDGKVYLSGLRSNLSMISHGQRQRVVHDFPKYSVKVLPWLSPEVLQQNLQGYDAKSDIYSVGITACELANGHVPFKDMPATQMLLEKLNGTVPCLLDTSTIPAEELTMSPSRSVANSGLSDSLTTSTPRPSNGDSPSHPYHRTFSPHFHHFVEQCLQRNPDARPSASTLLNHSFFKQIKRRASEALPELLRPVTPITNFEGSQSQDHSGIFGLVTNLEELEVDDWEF

[5] = target: Receptor-type tyrosine-protein kinase FLT3 (Homo sapiens) (UniProt P36888); assay: Selectivity interaction (KinomeScan (DiscoverX)) EUB0000695a FLT3; conditions: at 100 nM
[6] = target: T3, Mitogen-activated protein kinase kinase kinase 5 (Homo sapiens) (UniProt Q99683); assay: Selectivity interaction (KinomeScan (DiscoverX)) EUB0000045b MAP3K5
T3 sequence (whole entry): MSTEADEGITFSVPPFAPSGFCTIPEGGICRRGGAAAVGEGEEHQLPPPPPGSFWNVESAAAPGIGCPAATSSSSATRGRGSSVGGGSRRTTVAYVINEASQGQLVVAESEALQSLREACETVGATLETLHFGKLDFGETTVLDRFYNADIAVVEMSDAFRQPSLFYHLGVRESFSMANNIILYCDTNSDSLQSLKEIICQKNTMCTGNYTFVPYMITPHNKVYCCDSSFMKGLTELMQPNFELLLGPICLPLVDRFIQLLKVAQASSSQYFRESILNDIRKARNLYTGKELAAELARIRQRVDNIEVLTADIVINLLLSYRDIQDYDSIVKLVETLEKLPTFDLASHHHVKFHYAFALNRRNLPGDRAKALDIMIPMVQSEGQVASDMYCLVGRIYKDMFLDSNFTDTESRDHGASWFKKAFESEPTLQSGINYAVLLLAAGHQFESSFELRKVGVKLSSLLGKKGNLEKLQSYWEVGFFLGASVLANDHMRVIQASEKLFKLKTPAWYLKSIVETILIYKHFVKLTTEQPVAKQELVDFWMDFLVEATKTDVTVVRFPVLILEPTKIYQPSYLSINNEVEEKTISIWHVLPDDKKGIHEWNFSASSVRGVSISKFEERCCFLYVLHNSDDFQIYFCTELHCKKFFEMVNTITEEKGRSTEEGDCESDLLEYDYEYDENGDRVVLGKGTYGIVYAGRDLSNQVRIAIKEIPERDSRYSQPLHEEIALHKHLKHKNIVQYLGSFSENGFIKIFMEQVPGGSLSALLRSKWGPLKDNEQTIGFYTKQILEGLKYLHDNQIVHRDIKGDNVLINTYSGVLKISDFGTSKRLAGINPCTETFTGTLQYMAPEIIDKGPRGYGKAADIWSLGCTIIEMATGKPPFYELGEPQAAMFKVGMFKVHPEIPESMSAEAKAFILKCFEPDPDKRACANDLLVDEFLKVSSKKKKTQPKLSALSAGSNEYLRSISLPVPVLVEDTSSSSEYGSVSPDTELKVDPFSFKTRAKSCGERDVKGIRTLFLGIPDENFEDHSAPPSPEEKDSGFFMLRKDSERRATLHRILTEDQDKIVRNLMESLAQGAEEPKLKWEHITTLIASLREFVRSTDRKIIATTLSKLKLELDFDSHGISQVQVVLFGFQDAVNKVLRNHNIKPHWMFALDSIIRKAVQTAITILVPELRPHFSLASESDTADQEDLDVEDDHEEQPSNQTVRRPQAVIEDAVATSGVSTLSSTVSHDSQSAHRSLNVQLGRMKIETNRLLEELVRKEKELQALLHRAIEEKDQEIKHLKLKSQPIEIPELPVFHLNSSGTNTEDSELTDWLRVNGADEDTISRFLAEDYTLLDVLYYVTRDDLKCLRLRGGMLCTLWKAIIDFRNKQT

Chain of Bone morphogenetic protein receptor type-1A (P36894 whole entry): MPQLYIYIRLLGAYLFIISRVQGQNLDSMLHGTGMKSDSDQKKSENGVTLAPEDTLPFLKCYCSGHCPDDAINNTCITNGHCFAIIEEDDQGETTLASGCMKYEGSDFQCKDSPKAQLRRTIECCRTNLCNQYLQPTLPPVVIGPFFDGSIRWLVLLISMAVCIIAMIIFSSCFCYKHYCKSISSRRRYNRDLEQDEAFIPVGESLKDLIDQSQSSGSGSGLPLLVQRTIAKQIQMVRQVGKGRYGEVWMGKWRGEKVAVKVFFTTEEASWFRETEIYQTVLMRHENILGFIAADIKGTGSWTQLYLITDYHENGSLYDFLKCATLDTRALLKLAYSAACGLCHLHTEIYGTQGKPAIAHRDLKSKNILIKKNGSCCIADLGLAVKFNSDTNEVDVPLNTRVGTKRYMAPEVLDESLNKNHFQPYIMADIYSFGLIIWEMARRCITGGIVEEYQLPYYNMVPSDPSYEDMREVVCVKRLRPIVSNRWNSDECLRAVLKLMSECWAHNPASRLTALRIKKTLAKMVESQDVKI
Chain of Receptor-type tyrosine-protein kinase FLT3 (Homo sapiens) (P36888 whole entry): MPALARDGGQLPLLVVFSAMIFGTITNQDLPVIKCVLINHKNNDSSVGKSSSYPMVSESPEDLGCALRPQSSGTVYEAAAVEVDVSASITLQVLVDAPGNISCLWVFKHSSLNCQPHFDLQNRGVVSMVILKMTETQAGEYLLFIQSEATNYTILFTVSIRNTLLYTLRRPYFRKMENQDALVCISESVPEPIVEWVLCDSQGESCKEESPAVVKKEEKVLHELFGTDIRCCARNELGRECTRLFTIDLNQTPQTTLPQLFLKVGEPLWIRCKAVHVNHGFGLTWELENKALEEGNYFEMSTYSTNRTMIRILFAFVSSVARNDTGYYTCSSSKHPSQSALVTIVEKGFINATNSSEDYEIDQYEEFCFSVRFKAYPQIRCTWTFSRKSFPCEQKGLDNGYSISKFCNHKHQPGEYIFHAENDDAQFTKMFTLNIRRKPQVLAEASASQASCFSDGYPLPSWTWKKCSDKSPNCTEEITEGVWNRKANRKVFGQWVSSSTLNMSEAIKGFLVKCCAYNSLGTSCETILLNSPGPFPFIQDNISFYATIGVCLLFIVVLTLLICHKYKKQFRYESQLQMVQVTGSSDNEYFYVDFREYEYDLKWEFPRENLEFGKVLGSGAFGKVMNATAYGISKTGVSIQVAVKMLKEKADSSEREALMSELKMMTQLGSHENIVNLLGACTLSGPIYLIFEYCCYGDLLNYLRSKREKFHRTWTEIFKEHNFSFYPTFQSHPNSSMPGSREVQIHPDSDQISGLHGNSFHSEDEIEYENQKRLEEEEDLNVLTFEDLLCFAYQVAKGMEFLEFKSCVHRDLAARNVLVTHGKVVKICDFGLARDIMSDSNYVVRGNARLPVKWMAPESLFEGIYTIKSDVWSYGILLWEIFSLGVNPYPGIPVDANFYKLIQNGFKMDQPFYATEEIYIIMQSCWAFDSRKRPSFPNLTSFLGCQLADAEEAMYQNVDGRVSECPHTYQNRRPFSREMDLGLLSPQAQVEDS
Chain of Interleukin-1 receptor-associated kinase 1 (Homo sapiens) (P51617 whole entry, looked up): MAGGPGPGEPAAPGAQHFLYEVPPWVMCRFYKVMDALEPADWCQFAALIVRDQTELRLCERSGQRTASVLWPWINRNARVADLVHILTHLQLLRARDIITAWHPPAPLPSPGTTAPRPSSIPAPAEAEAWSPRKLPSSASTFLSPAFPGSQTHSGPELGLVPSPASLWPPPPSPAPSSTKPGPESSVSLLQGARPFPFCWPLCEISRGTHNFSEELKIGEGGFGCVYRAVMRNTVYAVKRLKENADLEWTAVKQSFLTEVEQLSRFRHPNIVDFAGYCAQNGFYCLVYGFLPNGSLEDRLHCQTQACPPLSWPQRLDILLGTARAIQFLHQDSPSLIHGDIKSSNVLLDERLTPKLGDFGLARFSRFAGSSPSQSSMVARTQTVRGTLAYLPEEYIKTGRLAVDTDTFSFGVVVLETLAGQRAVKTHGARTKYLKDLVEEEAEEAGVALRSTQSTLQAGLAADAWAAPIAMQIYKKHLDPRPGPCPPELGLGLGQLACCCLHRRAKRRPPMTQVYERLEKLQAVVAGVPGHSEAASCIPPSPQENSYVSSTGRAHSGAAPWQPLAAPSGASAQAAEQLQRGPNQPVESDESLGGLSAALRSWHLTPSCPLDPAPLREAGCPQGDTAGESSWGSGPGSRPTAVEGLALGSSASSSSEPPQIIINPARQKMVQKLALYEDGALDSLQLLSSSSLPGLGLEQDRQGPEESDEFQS

SMILES: O=C(NOC[C@H](O)CO)c1ccc(F)c(F)c1Nc1ccc(I)cc1F
- % of control [1]: 100%

SMILES: CNC(=O)Nc1ccc(-c2nc(N3CC4CCC(C3)O4)c3cnn(C4CCC5(CC4)OCCO5)c3n2)cc1
- % of control [2]: 100%

SMILES: CC[C@@H]1[C@H](F)C(=O)N[C@@H]1COc1nccc2cc(C(N)=O)c(OC)cc12 [ZIMLOVISERTIB]
- % of inhibition ([3]; at 0.01 µM): 8.5%
- % of inhibition ([3]; at 0.04 µM): -2.3%
- % of inhibition ([3]; at 0.2 µM): -7.6%
- % of inhibition ([3]; at 1 µM): 6.9%
- % of inhibition ([3]; at 5 µM): -26.2%
- % of inhibition ([4]; at 0.01 µM): -13.1%
- % of inhibition ([4]; at 0.04 µM): 4.6%
- % of inhibition ([4]; at 0.2 µM): -11.6%
- % of inhibition ([4]; at 1 µM): 5.4%
- % of inhibition ([4]; at 5 µM): 3.6%

SMILES: Cc1cc(F)c(C(=O)Nc2cccc(-c3nncn3C(C)C)n2)cc1-n1cnc(C2CC2)c1
- % of control [5]: 100%

SMILES: C=CC(=O)Nc1cc(-n2c(=O)ccc3cnc4ccc(-c5ccc(NS(C)(=O)=O)cc5)cc4c32)ccc1C
- % of control ([6]; at 1 µM): 100%
- % of control ([6]; at 10 µM): 100%
